Details of data set [1]: species or system homme. To be noted: in vivo. The source says: Des composés préférés pour l'utilisation selon l'invention sont le Murabutide (Nac-Mur-L-Ala-DGln OnC4H9) et le Muramétide (Nac-Mur-L-Ala-DGln OMe).
For the next data set, the system named is VIH (HTLV III Ba-L). As to the kind of experiment: HIV replication in primary human monocyte cultures (viral protein P24 in supernatants, day 7). Format: cell-based. To be noted: P24 at day 7. The source says:
L'exemple 2 démontre l'effet du Murabutide et du Muramétide sur le niveau de réplication du VIH dans des cultures primaires de monocytes humains prélevés sur des volontaires sains. Des cultures monocytaires ont été infectées au jour 0 par une source VIH (HTLV III Ba-L) qui présente un tropisme pour les monocytes. Certaines cultures furent traitées par différentes concentrations des composés soit 1 jour avant, soit le même jour, soit 1 jour après l'inoculation par le VIH. La réplication du virus a été évaluée au jour 7 par la mesure de la quantité de protéine virale P24 dans les surnageants comme décrite dans Blood, Vol.76, page 1490-1493, 1990.

For the next data set, the system named is macrophages. As to the kind of experiment: Macrophage proliferation in cultured donor monocytes (3H-thymidine incorporation). Format: cell-based, humains. To be noted: for inhibition de la prolifération des macrophages stimulées par la combinaison IL-3/GM-CSF / inhibition de la prolifération des macrophages stimulées par l'IL-3: 1 µg/ml, compound added one day before 3H-thymidine, 5-day culture; for inhibition de la prolifération des macrophages stimulées par la combinaison IL-3/GM-CSF: rh IL-3 + rh GM-CSF stimulated; for inhibition de la prolifération des macrophages stimulées par l'IL-3: rh IL-3 stimulated; for inhibition de la prolifération spontanée: no stimulation. From the text: Pour cela, des monocytes prélevés chez un donneur sont mis en culture pendant 5 jours soit a) sans stimulation (afin d'évaluer leur niveau de prolifération spontanée) soit b) en présence d'interleukine 3 recombinante humaine (rh IL-3) soit c) en présence et de rh IL-3 et de rh GM-CSF "granulocyte-macrophage colony stimulating factor" recombinant humain. […] Les composés de l'invention sont ajoutés au milieu de culture un jour avant l'addition de thymidine tritiée (^3H-thymidine). Les cellules en voie de division incorporent cette thymidine. Les cellules (qui se sont différenciées en macrophages pendant la durée de la culture) sont recueillies et lavées, et on évalue le niveau de prolifération en mesurant dans un compteur beta, la quantité de ^3H incorporée suivant des méthodes classiques telles que décrites dans Blood, Vol. 76, pages 1490-1493, 1990.

The test system of a further data set is macrophages de cobayes. The conditions noted are these: guinea pig macrophages; cited from earlier work.
A further data set deals with HIV. The conditions noted are these: in vitro, 1000 µg/ml; cited from earlier work.

On to `CCCCOC(=O)[C@@H](CCC(N)=O)NC(=O)[C@H](C)NC(=O)[C@@H](C)O[C@H]1[C@H](O)[C@@H](CO)OC(O)[C@@H]1NC(C)=O` (stereo partly drawn) [Murabutide, Nac-Mur-L-Ala-DGln OnC4H9], for which, in data set [1], the effets secondaires entry was “dénuées d'effets secondaires” and the tolérance result is recorded as “très bonne tolérance”. Besides, the “inhibition de la réplication virale” value in the data set with VIH (HTLV III Ba-L) (10 à 50 µg/ml, treatment on day -1, day 0 or day +1 relative to infection) is reported as “inhibe complètement la réplication virale”. In the data set with macrophages, the “inhibition de la prolifération des macrophages stimulées par la combinaison IL-3/GM-CSF” value is “inhiber la prolifération des macrophages” and the “inhibition de la prolifération des macrophages stimulées par l'IL-3” value was “inhiber la prolifération des macrophages”. Moreover, the “inhibition de la prolifération spontanée” value with macrophages (10 µg/ml) is “inhibition de la prolifération spontanée a été observé”.

Consider `CC(=O)N[C@H]1C(O)O[C@H](CO)[C@@H](O)[C@@H]1O[C@H](C)C(=O)N[C@@H](C)C(=O)N[C@H](CCC(=O)O)C(N)=O` (stereo partly drawn) [MDP, N-acétyl-muramyl-L-alanyl-D- Isoglutamine], for which the “inhibition de la prolifération des macrophages” value with macrophages de cobayes was “inhiber la prolifération des macrophages de cobayes”. Besides, in the data set on HIV, the “inhibition de la réplication de HIV” value is on record as “inhiber partiellement la réplication de HIV”.

On to `COC(=O)[C@@H](CCC(N)=O)NC(=O)[C@H](C)NC(=O)[C@@H](C)O[C@H]1[C@H](O)[C@@H](CO)OC(O)[C@@H]1NC(C)=O` (stereo partly drawn) [Muramétide, Nac-Mur-L-Ala-DGln OMe], for which, in data set [1], the effets secondaires result is on record as “dénuées d'effets secondaires” and the tolérance entry is recorded as “très bonne tolérance”. Moreover, the inhibition at 50 µg/mL in the data set on VIH (HTLV III Ba-L) (Human immunodeficiency virus 1, BAL, Monocyte, 168 h, 50 µg/ml, whatever the time of treatment (day -1, 0 or +1), read-out: suppression de la réplication virale) was 100%. For the same compound, the “suppression de la réplication virale” value in the data set with VIH (HTLV III Ba-L) (different concentrations, treatment day -1, 0 or +1) is listed as “suppression hautement significative de la réplication virale”. In the data set on macrophages, the “inhibition de la prolifération des macrophages stimulées par la combinaison IL-3/GM-CSF” value is “inhiber la prolifération des macrophages” and the “inhibition de la prolifération des macrophages stimulées par l'IL-3” value is listed as “inhiber la prolifération des macrophages”. Besides, the “inhibition de la prolifération spontanée” value in the data set on macrophages (10 µg/ml) is recorded as “inhibition de la prolifération spontanée a été observé”. Also, the “inhibition de la prolifération spontanée” value with macrophages (50 µg/ml) was “inhibition de la prolifération spontanée a été observé”.

(Values after patent EP0783319B1, “MURAMYL PEPTIDE COMPOSITIONS FOR INHIBITING HIV REPLICATION” (VACSYN S.A., priority 1994, dated 1996).)
